Literature values as cited in US20230087473A1, “COMPOSITION OF SUSPOEMULSION FORMULATION OF ANTHELMINTIC DRUGS WITH ESSENTIAL OILS FOR NASO-PULMONARY ADMINISTRATION” (priority 2021, published 2023).

Legend:
[1] = tested on: Musca Domenstica; settings: nasal irrigation with ivermectin solution, within 15 minutes
[2] = tested on: SARS-COV-2; settings: in-vitro study
[3] = in vivo

| Molecule | larvae self-expulsed by the patient [1] | effect on replication of SARS-COV-2 [2] | bioavailability [3] |
| --- | --- | --- | --- |
| Ivermectin | approximately 50 larvae | inhibitory role |  |
| O=C(Nc1ccc([N+](=O)[O-])cc1Cl)c1cc(Cl)ccc1O [Niclosamide] |  |  | very low bioavailability |
